assay: recombinant barcode read abundance after kanamycin selection (control-corrected) (log10(CPM+1)); higher = more efficient recombination; sequences stand for … in AGTGCAGAGAAAATCGGCCAGTTTTCTCTGCCTGCAGTCCGCATGCCGT…AGATTTATGCAGCGGACTGCCTTTCTCCCAAAGTGATAAACCGGACAGTATCATGGACCGGTTTTCCCGGTAATCCGTATTTGCAAGGTTGGTTTCACT; site = the 11-nt target
How it was run: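 Recombination efficiency comes from barcode counts at recombinant junctions, converted to counts per million, averaged and corrected against the control. Values appear as log10(CPM+1). They were obtained from a pooled E. coli screen in which each oligo paired a target with an IS621 bridge RNA target-binding loop, and cells were plated in duplicate on chloramphenicol/ampicillin LB agar or on chloramphenicol/ampicillin/kanamycin with 0.1 mM IPTG.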
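Also: IS621 recombinase and bridge RNA in Escherichia coli cells.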

Sequence	recombinant barcode read abundance (log10)
CCTGATTCTTGGGTTCTAACCTGTTGCCT (site CCTGAATCTAG)	0.0629
CCTGATTCTTGGGTTCTAACCTGTTGCCT (site CCTGACTCTAG)	0.113
CCTGATTCTTGGGTTCTAACCTGTTGCCT (site CCTGAGTCTAG)	0.107
CCTGATTCTTGGGTTCTAACCTGTTGCCT (site CCTGATTCTAG)	0.322
CCTGGACCTTGGGTTCTAACCTGTTGCTT (site CCTGGACCTAA)	1.87
CCTGGACCTTGGGTTCTAACCTGTTGCTT (site CCTGGTCCTAT)	0
CCTGGCACTTGGGTTCTAACCTGTTGCGA (site CCTAGCACTTC)	1.45
CCTGGCACTTGGGTTCTAACCTGTTGCGA (site CCTCGCACTTC)	0.0518
CCTGGCACTTGGGTTCTAACCTGTTGCGA (site CCTGGCACTTC)	2.37
CCTGGCACTTGGGTTCTAACCTGTTGCGA (site CCTTGCACTTC)	0.0559
CCTGGGCCTTGGGTTCTAACCTGTTGCTT (site CCTGGACCTAC)	0.471
CCTGGGCCTTGGGTTCTAACCTGTTGCTT (site CCTGGGCCTAA)	0.686
CCTGGGGCTTGGGTTCTAACCTGTTGCCT (site CCTGGGGCTAG)	0.233
CCTGGGGCTTGGGTTCTAACCTGTTGCCT (site CCTGGTCCTAG)	0.189
CCTGTATCTTGGGTTCTAACCTGTTGCCT (site ACTGTATCTAG)	0.0208
CCTGTATCTTGGGTTCTAACCTGTTGCCT (site CCTGTATCTAG)	0.127
CCTGTATCTTGGGTTCTAACCTGTTGCCT (site GCTGTATCTAG)	0.26
CCTGTATCTTGGGTTCTAACCTGTTGCCT (site TCTGTATCTAG)	0.039
CCTTACACTTGGGTTCTAACCTGTTGCGG (site CCTGACACTCC)	0.063
CCTTACACTTGGGTTCTAACCTGTTGCGG (site CCTTACACTCC)	2.53
CCTTACCCTTGGGTTCTAACCTGTTGCCT (site CCTTACCCTAG)	1.11
CCTTACCCTTGGGTTCTAACCTGTTGCCT (site CCTTAGCCTAG)	0.0606

Sequence	recombinant barcode read abundance (log10)
CCTTCTCCTTGGGTTCTAACCTGTTGCAT (site CCTTCTCCTAT)	0.319
CCTTCTCCTTGGGTTCTAACCTGTTGCAT (site GTACGATCTCC)	0.146
CCTTGCACTTGGGTTCTAACCTGTTGCGA (site CCTAGCACTTC)	0.0223
CCTTGCACTTGGGTTCTAACCTGTTGCGA (site CCTCGCACTTC)	0.0306
CCTTGCACTTGGGTTCTAACCTGTTGCGA (site CCTGGCACTTC)	0.0155
CCTTGCACTTGGGTTCTAACCTGTTGCGA (site CCTTGCACTTC)	0.409
CCTTGGGCTTGGGTTCTAACCTGTTGCTT (site CCTTGGGCTAA)	0.011
CCTTGGGCTTGGGTTCTAACCTGTTGCTT (site CTTTGGCCTAA)	0.305
CCTTGTACTTGGGTTCTAACCTGTTGCCT (site CCTTGTACTAG)	0.035
CCTTGTACTTGGGTTCTAACCTGTTGCCT (site CTTTGTACTAG)	0.0491
CCTTTACCTTGGGTTCTAACCTGTTGCCT (site ACTTTACCTAG)	0.136
CCTTTACCTTGGGTTCTAACCTGTTGCCT (site CCTTTACCTAG)	0.337
CCTTTACCTTGGGTTCTAACCTGTTGCCT (site GCTTTACCTAG)	0.0546
CCTTTACCTTGGGTTCTAACCTGTTGCCT (site TCTTTACCTAG)	0.171
CGAACATCTTGGGTTCTAACCTGTTGCTT (site ACCTACCCTCC)	0
CGAACATCTTGGGTTCTAACCTGTTGCTT (site CGAACATCTAA)	0.144
CGAACGACTTGGGTTCTAACCTGTTGCCT (site CGAACGACTAA)	0.157
CGAACGACTTGGGTTCTAACCTGTTGCCT (site CGAACGACTAG)	0.259
CGAACTACTTGGGTTCTAACCTGTTGCGT (site CGAACTACTAA)	0.22
CGAACTACTTGGGTTCTAACCTGTTGCGT (site CGAACTACTAC)	0.143
CGAACTACTTGGGTTCTAACCTGTTGCGT (site CGAACTACTAG)	0.109
CGAACTACTTGGGTTCTAACCTGTTGCGT (site CGAACTACTAT)	0.0569

Sequence	recombinant barcode read abundance (log10)
CGAAGATCTTGGGTTCTAACCTGTTGCCT (site CAAAGATCTAG)	0.142
CGAAGATCTTGGGTTCTAACCTGTTGCCT (site CCAAGATCTAG)	0
CGAAGATCTTGGGTTCTAACCTGTTGCCT (site CGAAGATCTAG)	0.273
CGAAGATCTTGGGTTCTAACCTGTTGCCT (site CTAAGATCTAG)	0.069
CGACACTCTTGGGTTCTAACCTGTTGCCT (site CAACACTCTAG)	0.107
CGACACTCTTGGGTTCTAACCTGTTGCCT (site CCACACTCTAG)	0.164
CGACACTCTTGGGTTCTAACCTGTTGCCT (site CGACACTCTAG)	0.251
CGACACTCTTGGGTTCTAACCTGTTGCCT (site CTACACTCTAG)	0.0214
CGACAGTCTTGGGTTCTAACCTGTTGCCT (site CGACAGTCTAG)	0.687
CGACAGTCTTGGGTTCTAACCTGTTGCCT (site TAGATTCCTTT)	0.201
CGACATACTTGGGTTCTAACCTGTTGCGT (site CGACATACTAC)	0.593
CGACATACTTGGGTTCTAACCTGTTGCGT (site GGACATGCTAC)	0.0511
CGACCCTCTTGGGTTCTAACCTGTTGCTT (site ACACCCTCTAA)	0.178
CGACCCTCTTGGGTTCTAACCTGTTGCTT (site CGACCCTCTAA)	1.39
CGACCTACTTGGGTTCTAACCTGTTGCTA (site CGACCTACTTA)	0.088
CGACCTACTTGGGTTCTAACCTGTTGCTA (site GTACCTACTTA)	0.17
CGACCTGCTTGGGTTCTAACCTGTTGCCT (site CGACCTGCTAG)	0.246
CGACCTGCTTGGGTTCTAACCTGTTGCCT (site CGCCCTACTAG)	0.249
CGACGAACTTGGGTTCTAACCTGTTGCCT (site CGACGAACTAG)	0.201
CGACGAACTTGGGTTCTAACCTGTTGCCT (site GTCAATCCTCC)	0.0212
CGACGTCCTTGGGTTCTAACCTGTTGCGG (site CGACGTCCTCC)	1.74
CGACGTCCTTGGGTTCTAACCTGTTGCGG (site TGAAGTCCTCC)	0.00826

Sequence	recombinant barcode read abundance (log10)
CGACTTACTTGGGTTCTAACCTGTTGCAT (site ACGGGCTCTGA)	0.103
CGACTTACTTGGGTTCTAACCTGTTGCAT (site CGACTTACTAT)	0.0348
CGAGCTCCTTGGGTTCTAACCTGTTGCCT (site CGAGCTCCTAA)	0.763
CGAGCTCCTTGGGTTCTAACCTGTTGCCT (site CGAGCTCCTAC)	0.582
CGAGCTCCTTGGGTTCTAACCTGTTGCCT (site CGAGCTCCTAG)	1.24
CGAGCTCCTTGGGTTCTAACCTGTTGCCT (site CGAGCTCCTAT)	0.157
CGAGGCCCTTGGGTTCTAACCTGTTGCTT (site CGAGGCCCTAA)	1.93
CGAGGCCCTTGGGTTCTAACCTGTTGCTT (site GTCCTATCTGT)	0.0488
CGAGTGACTTGGGTTCTAACCTGTTGCCA (site CGAGTGACTTG)	0.906
CGAGTGACTTGGGTTCTAACCTGTTGCCA (site TTCCGTCCTAA)	0.382
CGATCGACTTGGGTTCTAACCTGTTGCAG (site CGACCGACTCT)	0.401
CGATCGACTTGGGTTCTAACCTGTTGCAG (site CGATCGACTCT)	0.809
CGATCGCCTTGGGTTCTAACCTGTTGCCT (site CGATCGCCTAG)	0.339
CGATCGCCTTGGGTTCTAACCTGTTGCCT (site GGACCGCCTAG)	0.0952
CGATGTGCTTGGGTTCTAACCTGTTGCCT (site CGATGTCCTAG)	0.334
CGATGTGCTTGGGTTCTAACCTGTTGCCT (site CGATGTGCTAG)	0.535
CGATTTCCTTGGGTTCTAACCTGTTGCAT (site CGATTTCCTAG)	0
CGATTTCCTTGGGTTCTAACCTGTTGCAT (site CGATTTCCTAT)	0.0511
CGCCATCCTTGGGTTCTAACCTGTTGCAT (site CGCCATCCTAT)	0.134
CGCCATCCTTGGGTTCTAACCTGTTGCAT (site CGCCCTCCTAT)	0.227
